Experimental data as given in the supplement of paper PMC10307832.

How the values were obtained:
Assay in all cases: relative viability (nuclei count vs DMSO), 5 days (fraction); higher = more cells survive
Entinostat + Pemetrexed = compound: Nc1ccccc1NC(=O)c1ccc(CNC(=O)OCc2cccnc2)cc1 [Entinostat] + Nc1nc2[nH]cc(CCc3ccc(C(=O)N[C@@H](CCC(=O)O)C(=O)O)cc3)c2c(=O)[nH]1 [Pemetrexed] (partner 0.2 µM)
Procedure, shortened: (§1)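 A single step with final 0.05% Triton X-100, 1% formaldehyde and 1 ug/ml Hoechst fixed the cells and stained nuclei 5 days after treatment. Lung cancer cell lines in 1536-well plates had been treated by pin tool the day after seeding with one drug alone or a fixed anchor-drug dose plus five library-drug doses (not always all listed) in √10 steps, and nuclei were counted on 4× images. Relative viability is the ratio of nuclei in treated wells to nuclei in vehicle wells, taken as the median of duplicate plates.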

Entinostat + Dasatinib = compound: Nc1ccccc1NC(=O)c1ccc(CNC(=O)OCc2cccnc2)cc1 [Entinostat] + Cc1nc(Nc2ncc(C(=O)Nc3c(C)cccc3Cl)s2)cc(N2CCN(CCO)CC2)n1 [Dasatinib] (partner 0.075 µM)
Procedure, shortened: as §1

SGI-1776 + Foretinib = compound: CN1CCC(CNc2ccc3ncc(-c4cccc(OC(F)(F)F)c4)n3n2)CC1 [SGI-1776] + COc1cc2c(Oc3ccc(NC(=O)C4(C(=O)Nc5ccc(F)cc5)CC4)cc3F)ccnc2cc1OCCCN1CCOCC1 [Foretinib] (partner 0.25 µM)
Procedure, shortened: as §1

SGI-1776 + Pemetrexed = compound: CN1CCC(CNc2ccc3ncc(-c4cccc(OC(F)(F)F)c4)n3n2)CC1 [SGI-1776] + Nc1nc2[nH]cc(CCc3ccc(C(=O)N[C@@H](CCC(=O)O)C(=O)O)cc3)c2c(=O)[nH]1 [Pemetrexed] (partner 0.2 µM)
Procedure, shortened: as §1

| Cell Line | relative viability (Entinostat + Pemetrexed; first compound 0.02 µM) | relative viability (Entinostat + Pemetrexed; first compound 0.06325 µM) | relative viability (Entinostat + Pemetrexed; first compound 0.2 µM) | relative viability (Entinostat + Pemetrexed; first compound 0.6325 µM) | relative viability (Entinostat + Pemetrexed; first compound 2 µM) | relative viability (Entinostat + Dasatinib; first compound 0.02 µM) | relative viability (Entinostat + Dasatinib; first compound 0.06325 µM) | relative viability (Entinostat + Dasatinib; first compound 0.2 µM) | relative viability (Entinostat + Dasatinib; first compound 0.6325 µM) | relative viability (Entinostat + Dasatinib; first compound 2 µM) | relative viability (SGI-1776 + Foretinib; first compound 0.08 µM) | relative viability (SGI-1776 + Foretinib; first compound 0.8 µM) | relative viability (SGI-1776 + Foretinib; first compound 2.53 µM) | relative viability (SGI-1776 + Foretinib; first compound 8 µM) | relative viability (SGI-1776 + Pemetrexed; first compound 0.08 µM) | relative viability (SGI-1776 + Pemetrexed; first compound 0.8 µM) | relative viability (SGI-1776 + Pemetrexed; first compound 2.53 µM) | relative viability (SGI-1776 + Pemetrexed; first compound 8 µM) |
| --- | --- | --- | --- | --- | --- | --- | --- | --- | --- | --- | --- | --- | --- | --- | --- | --- | --- | --- |
| SW 900 | 0.529 | 0.51 | 0.448 | 0.489 | 0.43 | 0.795 | 0.589 | 0.661 | 0.444 | 0.248 | 1.05 | 1.12 | 0.9 | 0.817 | 0.488 | 0.486 | 0.493 | 0.46 |
| SW 1573 | 0.806 | 0.88 | 1.08 | 0.966 | 0.452 | 0.532 | 0.518 | 0.711 | 0.627 | 0.454 | 0.949 | 0.846 | 0.846 | 0.791 | 0.896 | 0.799 | 0.77 | 0.671 |
